According to article PMC3171403, “Two Functionally Distinctive Phosphopantetheinyl Transferases from Amoeba Dictyostelium discoideum” (PLoS ONE, 2011):

Columns and labels:
Format in all cases: biochemical
[1] = target: T1, DiAcpS (Dictyostelium discoideum, UniProt Q552R4); assay: gel-based radiolabel transfer to apo-ACP, phosphorimager; conditions: labelled compound; 5-45 uM; 20 uM enzyme; 54 uM mycobacterial ACP Rv1344; 12.5 mM MgCl2, Tris-Cl pH 8.0, 30 C (gel-binding assay); only kcat/Km in text
T1 construct: gene DDB_G0275923; full gene (2 exons) in pET28a, N-terminal His6 tag, E. coli BL21(DE3); expected 20 kDa, runs at about 27 kDa
T1 sequence (Q552R4 entry or part of it): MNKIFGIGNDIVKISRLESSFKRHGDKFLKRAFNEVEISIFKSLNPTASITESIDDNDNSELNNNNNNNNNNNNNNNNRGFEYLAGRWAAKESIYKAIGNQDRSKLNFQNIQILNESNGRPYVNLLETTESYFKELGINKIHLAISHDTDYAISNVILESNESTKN

[2] = target: T2, DiSfp (Dictyostelium discoideum, UniProt Q54MI2); assay: as above; conditions: labelled compound; 5-45 uM; 20 uM enzyme; 54 uM mycobacterial PKS2; 12.5 mM MgCl2, Tris-Cl pH 8.0, 30 C (gel-binding assay); only kcat/Km in text
T2 construct: gene DDB_G0285927; full gene (2 exons) in pET28a, N-terminal His6 tag, E. coli BL21(DE3); 34 kDa
T2 sequence (Q54MI2 entry or part of it): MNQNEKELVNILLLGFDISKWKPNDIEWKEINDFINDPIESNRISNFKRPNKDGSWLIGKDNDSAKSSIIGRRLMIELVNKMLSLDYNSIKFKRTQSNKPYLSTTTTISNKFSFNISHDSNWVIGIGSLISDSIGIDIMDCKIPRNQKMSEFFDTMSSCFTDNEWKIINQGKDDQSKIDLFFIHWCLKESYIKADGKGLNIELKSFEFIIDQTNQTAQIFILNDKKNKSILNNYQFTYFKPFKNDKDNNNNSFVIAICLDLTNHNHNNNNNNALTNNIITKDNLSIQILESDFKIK

[3] = target: T1, DiAcpS; assay: HPLC and MALDI-TOF of holo-ACP formation; conditions: 250 uM CoA; 54 uM apo-ACP (Rv1344 or Dictyostelium stand-alone ACP); 12.5 mM MgCl2, Tris-Cl pH 8.0, 37 C
[4] = target: T2, DiSfp; assay: HPLC and MALDI-TOF of holo-ACP formation; conditions: 250 uM CoA; 54 uM apo DiPKS16 ACP; 12.5 mM MgCl2, Tris-Cl pH 8.0, 37 C

SMILES	gel-based radiolabel transfer to apo-ACP, phosphorimager [1]	gel-based radiolabel transfer to apo-ACP, phosphorimager [2]	HPLC and MALDI-TOF of holo-ACP formation [3]	HPLC and MALDI-TOF of holo-ACP formation [4]
CC(=O)SCCNC(=O)CCNC(=O)[C@H](O)C(C)(C)COP(=O)(O)OP(=O)(O)OC[C@H]1O[C@@H](n2cnc3c(N)ncnc32)[C@H](O)[C@@H]1OP(=O)(O)O [acetyl CoA]	Kinetics of DiAcpS with the ACP was determined by varying the concentrations of acetyl CoA	phosphopantetheinylation only by DiSfp and no activity could be observed for DiAcpS	–	–
CC(C)(COP(=O)(O)OP(=O)(O)OC[C@H]1O[C@@H](n2cnc3c(N)ncnc32)[C@H](O)[C@@H]1OP(=O)(O)O)[C@@H](O)C(=O)NCCC(=O)NCCS [coenzyme A]	–	–	DiAcpS mediated conversion of apo- to holo-ACP resulted in shift in the retention time	DiSfp resulted in a shift of ACP retention time on reverse-phase column
